Laboratory results: the Kinase Knowledgebase extract (Sharma et al. 2016)

Target: PIK3CA (human) (UniProt P42336)
Test: Assessment of PIK3CA Kinase Activity

PIK3CA (human), sequence (P42336 whole entry, looked up): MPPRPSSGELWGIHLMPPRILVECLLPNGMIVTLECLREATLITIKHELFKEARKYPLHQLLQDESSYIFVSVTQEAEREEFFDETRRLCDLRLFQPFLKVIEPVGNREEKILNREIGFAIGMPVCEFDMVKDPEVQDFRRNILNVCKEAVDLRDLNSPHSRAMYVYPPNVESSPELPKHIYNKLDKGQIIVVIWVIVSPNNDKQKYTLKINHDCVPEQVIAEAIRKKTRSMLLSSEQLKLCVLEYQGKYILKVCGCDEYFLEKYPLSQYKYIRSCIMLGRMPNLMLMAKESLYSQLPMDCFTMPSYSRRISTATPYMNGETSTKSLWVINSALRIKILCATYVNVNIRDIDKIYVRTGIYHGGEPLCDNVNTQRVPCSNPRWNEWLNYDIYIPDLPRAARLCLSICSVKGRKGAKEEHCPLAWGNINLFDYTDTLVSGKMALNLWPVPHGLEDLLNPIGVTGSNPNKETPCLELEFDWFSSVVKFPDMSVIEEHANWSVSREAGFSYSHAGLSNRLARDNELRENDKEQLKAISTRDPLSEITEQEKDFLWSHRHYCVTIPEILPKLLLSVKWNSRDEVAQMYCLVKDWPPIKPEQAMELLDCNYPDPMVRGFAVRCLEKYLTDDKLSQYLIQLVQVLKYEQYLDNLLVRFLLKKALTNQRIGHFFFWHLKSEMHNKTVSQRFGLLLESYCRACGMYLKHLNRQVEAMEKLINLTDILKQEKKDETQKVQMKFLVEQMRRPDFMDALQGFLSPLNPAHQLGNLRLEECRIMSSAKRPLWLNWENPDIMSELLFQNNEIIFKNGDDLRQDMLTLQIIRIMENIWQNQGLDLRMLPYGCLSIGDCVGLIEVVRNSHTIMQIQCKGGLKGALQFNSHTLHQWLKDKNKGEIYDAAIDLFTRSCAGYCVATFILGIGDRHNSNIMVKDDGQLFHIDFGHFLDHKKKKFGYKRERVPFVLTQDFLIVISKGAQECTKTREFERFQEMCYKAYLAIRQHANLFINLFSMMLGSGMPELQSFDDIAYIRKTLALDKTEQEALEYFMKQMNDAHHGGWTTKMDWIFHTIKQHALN

Row | IC50 | SMILES
1 | < 1000 nM | CC(C)n1ncnc1-c1cn2c(n1)-c1cc(NC3CNC3)ncc1OCC2
2 | < 1000 nM | CS(=O)(=O)c1ccccc1CNc1cc2c(cn1)-c1nc(-c3ncnn3-c3ccc(F)cc3F)cn1CCO2
3 | < 1000 nM | CC(C)n1nc(CO)nc1-c1cn2c(n1)-c1cnc(N(C)C)cc1OCC2
4 | < 1000 nM | Cc1nc(-c2cn3c(n2)-c2ccc(Br)cc2OCC3)n(C(C)C)n1
5 | < 1000 nM | CC(C)n1ncnc1-c1cn2c(n1)-c1cnc(N3CCC[C@H]3C(N)=O)cc1OCC2
6 | < 1000 nM | CS(=O)(=O)CCN1CCC(CO)(c2ccc3c(c2)-c2nn(-c4ncnn4-c4ccc(F)cc4F)cc2CCO3)CC1
7 | < 1000 nM | CC(C)n1ncnc1-c1cn2c(n1)-c1cnc(N3CCC[C@@H]3C(N)=O)cc1OCC2
8 | < 1000 nM | CC(C)n1ncnc1-c1cn2c(n1)-c1cnc(OCC(N)=O)cc1OCC2
9 | < 1000 nM | Cc1nc(-c2cn3c(n2)-c2ccc(C4CCN(CC(=O)NC(C)C)CC4)cc2OCC3)n(C(C)C)n1
10 | < 1000 nM | CCc1ccccc1-c1ccc2c(c1)OCCn1cc(-c3ncnn3C(C)C)nc1-2
11 | < 1000 nM | CC(C)n1ncnc1-c1cc2n(n1)-c1cc(C(=O)Nc3cnn(CCO)c3)ccc1OCC2
12 | < 1000 nM | CNC(=O)[C@@H]1CCCN1c1cc2c(cn1)-c1nc(-c3ncnn3C(C)C)cn1CCO2
13 | < 1000 nM | CC(C)n1ncnc1-c1cn2c(n1)-c1cnc(N3CC(O)C3)cc1OCC2
14 | < 1000 nM | CC(C)(CO)N1CCC(c2ccc3c(c2)-c2nn(-c4ncnn4-c4ccc(F)cc4F)cc2CCO3)CC1
15 | < 1000 nM | Cc1nc(-c2cn3c(n2)-c2ccc(OC4COC4)cc2OCC3)n(C(C)C)n1
16 | < 1000 nM | Cc1nc(-c2cn3c(n2)-c2ccc(F)cc2OCC3)n(C(C)C)n1
17 | < 1000 nM | CC(C)n1ncnc1-c1cn2c(n1)-c1ccc(-c3ccccc3C(N)=O)cc1OCC2
18 | < 1000 nM | CC(C)N1CCN(C(=O)c2ccc3c(c2)-c2nc(-c4ncnn4-c4ccccc4Cl)cn2CCO3)CC1
19 | < 1000 nM | CC(C)n1nc(N)nc1-c1cn2c(n1)-c1ccc(-c3cncc(F)c3)cc1OCC2
20 | < 1000 nM | CC(C)C(Oc1cc2c(cn1)-c1nc(-c3ncnn3C(C)C)cn1CCO2)C(N)=O (configuration not stated)
21 | < 1000 nM | Cc1nc(-c2cn3c(n2)-c2ccc(OC4CCC4)cc2OCC3)n(C(C)C)n1
22 | < 1000 nM | CNC(=O)CN1CCC(c2ccc3c(c2)OCCn2cc(-c4ncnn4C(C)C)nc2-3)CC1
23 | < 1000 nM | Cc1nc(-c2cn3c(n2)-c2cnc(N4CC[C@@H](O)[C@H]4C(N)=O)cc2OCC3)n(C(C)C)n1
24 | < 1000 nM | CC(C)n1ncnc1-c1cn2c(n1)-c1ccc(Br)cc1OCC2

Row | IC50 | SMILES
25 | < 1000 nM | CC(C)n1ncnc1-c1cn2c(n1)-c1cnc(N3CCC(O)CC3)cc1OCC2
26 | < 1000 nM | Cc1nc(-c2cn3c(n2)-c2cnc(N4CCC[C@H]4C(N)=O)cc2OCC3)n(C(C)C)n1
27 | < 1000 nM | COc1ccc(CNc2cc3c(cn2)-c2nc(-c4ncnn4CC(F)(F)F)cn2CCO3)cc1OC
28 | < 1000 nM | Cc1nc(-c2cn3c(n2)-c2cnc(N4CC[C@H](O)[C@H]4C(N)=O)cc2OCC3)n(C(C)C)n1
29 | < 1000 nM | NC(=O)[C@@H]1CCCN1c1cc2c(cn1)-c1nc(-c3ncnn3-c3ccc(F)cc3F)cn1CCO2
30 | < 1000 nM | CC(C)n1ncnc1-c1cn2c(n1)-c1ccc(-c3cnc(CC(C)(C)O)[nH]3)cc1OCC2
31 | < 1000 nM | CC(C)n1ncnc1-c1cn2c(n1)-c1cnc(N3CCC(C)(C)[C@H]3C(N)=O)cc1OCC2
32 | < 1000 nM | CCOc1ccccc1-c1cn2c(n1)-c1ccc(C(=O)OC)cc1OCC2
33 | < 1000 nM | CC(C)n1ncnc1-c1cn2c(n1)-c1cnc(NCc3ccn[nH]3)cc1OCC2
34 | < 1000 nM | Cc1nc(-c2cn3c(n2)-c2ccc(-c4cnn(CCO)c4)cc2OCC3)n(C)n1
35 | < 1000 nM | O=C(c1ccc2c(c1)-c1nc(-c3ncnn3CC(F)(F)F)cn1CCO2)N1CCOCC1
36 | < 1000 nM | CC(C)n1ncnc1-c1cn2c(n1)-c1ccc(C3CCOCC3)cc1OCC2
37 | < 1000 nM | NC(=O)CN1CCC(c2ccc3c(c2)-c2nn(-c4ncnn4-c4ccc(F)cc4F)cc2CCO3)CC1
38 | < 1000 nM | CC(C)n1nccc1-c1cn2c(n1)-c1ccc(CNC(N)=O)cc1OCC2
39 | < 1000 nM | CC(C)n1ncnc1-n1cc2c(n1)-c1ccc(C3CN(CC(N)=O)C3)cc1OCC2
40 | < 1000 nM | NC(=O)c1ccc2c(c1)OCCn1cc(-c3ncnn3-c3ccccc3Cl)nc1-2
41 | < 1000 nM | CC(C)n1ncnc1-c1cn2c(n1)-c1ccc(C(=O)NO)cc1OCC2
42 | < 1000 nM | CS(=O)(=O)CCNC(=O)c1ccc2c(c1)OCCn1cc(-c3ncnn3-c3ccccc3Cl)nc1-2
43 | < 1000 nM | CC[C@H](Oc1ccc2c(c1)OCCn1cc(-c3ncnn3CC(F)(F)F)nc1-2)C(N)=O
44 | < 1000 nM | CCOc1ccc2c(c1)OCCn1cc(-c3ncnn3C(C)C)nc1-2
45 | < 1000 nM | CC(C)n1ncnc1-c1cn2c(n1)-c1ccc(C3C(=O)NNC3=O)cc1OCC2
46 | < 1000 nM | Cc1nc(-c2cn3c(n2)-c2cnc(N4CCCC4Cc4ccccc4C)cc2OCC3)n(CC(F)(F)F)n1 (configuration not stated)
47 | < 1000 nM | CC(C)n1ncnc1-c1cc2n(n1)-c1cc(C3CN(CCO)C3)ccc1OCC2
48 | < 1000 nM | CC(C)n1ncnc1-c1cn2c(n1)-c1ccc(-c3ccc(Cl)cc3)cc1OCC2

Row | IC50 | SMILES
49 | < 1000 nM | CC[C@@H](Oc1ccc2c(c1)OCCn1cc(-c3ncnn3CC(F)(F)F)nc1-2)C(N)=O
50 | < 1000 nM | CSc1nc(-c2cn3c(n2)-c2ccc(Br)cc2OCC3)n(C(C)C)n1
51 | < 1000 nM | CC(C)(O)CN1CCC(c2ccc3c(c2)-c2nn(-c4ncnn4-c4ccc(F)cc4F)cc2CCO3)CC1
52 | < 1000 nM | CC(C)n1ncnc1-c1cn2c(n1)-c1ccc(N3CCN(CC(=O)N(C)C)CC3)nc1OCC2
53 | < 1000 nM | CC(C)n1ncnc1-c1cn2c(n1)-c1ccc(C3=CCN(C)CC3C(N)=O)cc1OCC2 (configuration not stated)
54 | < 1000 nM | CC(C)[C@H](Oc1ccc2c(c1)OCCn1cc(-c3ncnn3CC(F)(F)F)nc1-2)C(N)=O
55 | < 1000 nM | CC(C)n1nc(N)nc1-c1cn2c(n1)-c1cc(C(F)(F)F)ccc1OCC2
56 | < 1000 nM | CC(C)N1CCC(c2ccc3c(c2)OCCn2cc(-c4ncnn4C(C)C)nc2-3)CC1
57 | < 1000 nM | N#Cc1ccc2c(c1)OCCn1cc(-c3nc(N)nn3CC(F)(F)F)nc1-2
58 | < 1000 nM | CNc1cc2c(cn1)-c1nc(-c3ncnn3C(C)C)cn1CCO2
59 | < 1000 nM | CC(C)n1ncnc1-c1cn2c(n1)-c1cnc(N[C@H](C)C(N)=O)cc1OCC2
60 | < 1000 nM | CC(C)n1ncnc1-c1cc2n(n1)-c1cc(C(=O)N3CCN(CC(F)(F)F)CC3)ccc1OCC2
61 | < 1000 nM | CC(C)n1nccc1-c1cn2c(n1)-c1ccc(CN)cc1OCC2
62 | < 1000 nM | CC(C)n1ncnc1-c1cn2c(n1)-c1ccc(C3CN(CC(N)=O)C3)cc1OCC2
63 | < 1000 nM | CC(C)n1ncnc1-c1cn2c(n1)-c1ccc(=O)[nH]c1OCC2
64 | < 1000 nM | Cc1nc(-c2ccc3c(c2)OCCn2cc(-c4ncnn4C(C)C)nc2-3)cn1C
65 | < 1000 nM | CC(C)n1ncnc1-c1cn2c(n1)-c1ccncc1OCC2
66 | < 1000 nM | CC(C)n1nc(CC(N)=O)nc1-c1cn2c(n1)-c1ccc(Br)cc1OCC2
67 | < 1000 nM | CC(C)n1ncnc1-c1cc2n(n1)-c1cc(C3CN(S(C)(=O)=O)C3)ccc1OCC2
68 | < 1000 nM | Cc1nc(-c2cn3c(n2)-c2ccc(C4CCN(C(C)(C)CO)CC4)cc2OCC3)n(C(C)C)n1
69 | < 1000 nM | Cc1nc(-c2cn3c(n2)-c2ccc(-c4cnn(CC(C)C(N)=O)c4)cc2OCC3)n(C(C)C)n1 (configuration not stated)
70 | < 1000 nM | CC(C)n1ncnc1-c1cn2c(n1)-c1cnc(N3CC[C@@H](O)C3)cc1OCC2
71 | < 1000 nM | Cc1nc(-c2cn3c(n2)-c2ccc(N4CCC[C@H]4C(N)=O)cc2OCC3)n(CC(F)(F)F)n1
72 | < 1000 nM | NC(=O)CNc1cc2c(cn1)-c1nc(-c3ncnn3CC(F)(F)F)cn1CCO2

Row | IC50 | SMILES
73 | < 1000 nM | CC(C)n1nc(N)nc1-c1cn2c(n1)-c1ccc(-c3cnn(CCO)c3)cc1OCC2
74 | < 1000 nM | Cc1nc(-c2cn3c(n2)-c2cc(F)ccc2OCC3)n(C(C)C)n1
75 | < 1000 nM | CC(C)n1ncnc1-c1cn2c(n1)-c1ccc(O[C@@H](CO)C(N)=O)cc1OCC2
76 | < 1000 nM | CC(C)n1ncnc1-c1cn2c(n1)-c1ccc(C3CN(CC(=O)N(C)C)C3)cc1OCC2
77 | < 1000 nM | Nc1nc(-c2cn3c(n2)-c2cc(-c4ccccc4)ccc2OCC3)n(-c2ccccc2Cl)n1
78 | < 1000 nM | NC(=O)[C@@H]1CCCCN1c1ccc2c(c1)OCCn1cc(-c3ncnn3CC(F)(F)F)nc1-2
79 | < 1000 nM | Cc1nc(-c2cn3c(n2)-c2ccc(C4CCN(C(C)(C)C(N)=O)CC4)cc2OCC3)n(C(C)C)n1
80 | < 1000 nM | COc1ccc(CNc2cc3c(cn2)-c2nc(-c4nc(C)nn4CC(F)(F)F)cn2CCO3)cc1OC
81 | < 1000 nM | CC(C)n1ncnc1-c1cn2c(n1)-c1cnc(N3CC=C[C@@H]3C(N)=O)cc1OCC2
82 | < 1000 nM | CC(C)n1ncnc1-c1cc2n(n1)-c1cc(C(=O)N3CCS(=O)(=O)CC3)ccc1OCC2
83 | < 1000 nM | CC(C)n1ncnc1-c1cn2c(n1)-c1cnc(N3C[C@H](O)C[C@H]3C(N)=O)cc1OCC2
84 | < 1000 nM | CC(C)n1ncnc1-c1cn2c(n1)-c1ccc(N3CCNC(=O)C3)nc1OCC2
85 | < 1000 nM | Cc1nc(-c2cn3c(n2)-c2ccc([C@@H]4CCCN4C(N)=O)cc2OCC3)n(C(C)C)n1
86 | < 1000 nM | CC(C)n1ncnc1-c1cn2c(n1)-c1cnc(O[C@H](C)C(N)=O)cc1OCC2
87 | < 1000 nM | Cc1nc(-c2cn3c(n2)-c2cnc(N4C[C@@H](F)C[C@H]4C(N)=O)cc2OCC3)n(C(C)C)n1
88 | < 1000 nM | Cc1nc(-c2cn3c(n2)-c2cnc(N)cc2OCC3)n(CC(F)(F)F)n1
89 | < 1000 nM | CC(C)n1ncnc1-c1cn2c(n1)-c1cc(N3CCN(C)CC3)ncc1OCC2
90 | < 1000 nM | CC(C)n1ncnc1-c1cn2c(n1)-c1cnc(N3CC[C@H](C#N)C3)cc1OCC2
91 | < 1000 nM | CC(C)n1ncnc1-c1cn2c(n1)-c1cc(-c3cn[nH]c3)ccc1OCC2
92 | < 1000 nM | CC(C)n1ncnc1-c1cn2c(n1)-c1ccc(C3CCN(CC(F)(F)F)CC3)cc1OCC2
93 | < 1000 nM | Cc1ncc(-c2ccc3c(c2)OCCn2cc(-c4ncnn4C(C)C)nc2-3)n1C
94 | < 1000 nM | CC(C)n1ncc(C#N)c1-c1cn2c(n1)-c1ccc(C(N)=O)cc1OCC2
95 | < 1000 nM | CC(C)n1ncnc1-c1cn2c(n1)-c1ccc(-c3cnn(CCO)c3)cc1OCC2
96 | < 1000 nM | CC(C)n1ncnc1-c1cn2c(n1)-c1cnc(N3CCNC(=O)C3)cc1OCC2

Row | SMILES | IC50
97 | CC(C)n1ncnc1-c1cn2c(n1)-c1ccc(C3=C(C(N)=O)CN(C)CC3)cc1OCC2 | < 1000 nM
